Measurements as given in patent US5750362A, “Methods for identifying substances with a potential herbicidal or growth-regulating action by means of plant transporter proteins, the use of the transporter proteins, and substances with a herbicidal and growth-regulating action” (BASF Aktiengesellschaft, priority 1993, dated 1998).
Where two headings read alike, the source gives them in different places. One block for each compound: values may come before it.

Key:
[1] = molecular target: T1, sucrose transporter S21 (SoSUT1) (Spinacia oleracea, UniProt Q03411); assay: [14C]-sucrose uptake by yeast strain SUSY7 expressing the spinach sucrose transporter; format: cell-based; settings: for remaining activity at 1000 µM: tested substance 1.0 mmol/l
T1 construct: expressed in transfected cells; host or cells: Saccharomyces cerevisiae SUSY7
T1 sequence (Q03411 1-525): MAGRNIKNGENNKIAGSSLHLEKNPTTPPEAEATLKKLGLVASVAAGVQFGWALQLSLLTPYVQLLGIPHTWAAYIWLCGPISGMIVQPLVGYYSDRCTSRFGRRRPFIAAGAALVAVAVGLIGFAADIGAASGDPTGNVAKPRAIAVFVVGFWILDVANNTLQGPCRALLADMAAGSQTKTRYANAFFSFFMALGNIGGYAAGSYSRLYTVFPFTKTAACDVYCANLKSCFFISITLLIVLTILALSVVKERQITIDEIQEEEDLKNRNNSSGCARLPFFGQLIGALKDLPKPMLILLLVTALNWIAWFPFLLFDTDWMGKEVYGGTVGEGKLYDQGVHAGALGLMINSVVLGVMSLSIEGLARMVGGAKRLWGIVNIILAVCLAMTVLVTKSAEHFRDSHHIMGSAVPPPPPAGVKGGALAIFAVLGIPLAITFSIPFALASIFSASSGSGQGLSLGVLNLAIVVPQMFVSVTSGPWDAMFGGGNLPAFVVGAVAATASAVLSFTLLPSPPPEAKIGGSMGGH
Experimental: Yeast cells of the strain SUSY7 (Riesmeier et al., 1992, EMBO J. 11: 4705-4713) are used to identify substances which have an inhibitory effect on sucrose transporters from spinach. Cells of this strain are transformed with a cDNA sequence which codes for the sucrose transporter S21 (SoSUT1) from spinach and which ensures expression of a functional transporter in the cells. The yeast cells are cultured in minimal medium (SD+2% (w/v) sucrose, pH 3.8) at 28° C. and harvested in the logarithmic phase (OD600 =0.6). The cells are spun down at 4000 rpm for 10 minutes and washed twice with SD medium. A cell concentration of c=50 g/l in SD medium is adjusted according to the wet weight of the cells, and 200 μl aliquot fractions are taken. Before the actual reaction, the cells are incubated in 10 mM glucose for 5 min and adjusted to pH 3.8 with MES buffer. The reaction is started by adding 200 μl of a 0.2 mmol/l [14C]-sucrose solution (3 mCi/mmol) in SD medium (pH 3.8). After 20, 60, 120, 180 and 240 seconds, 70 μl portions of the suspension are removed and pipetted into 4 ml of ice-cold water in order to stop the reaction. The cells are filtered off on glass fiber filters and washed twice with ice-cold water. The radioactivity on the filters is subsequently determined in a liquid scintillation counter. The substances to be tested are added 30 seconds before addition of the sucrose. The uptake of radiolabeled sucrose without addition of a potential inhibitor is determined as one control. Cells of the strain SUSY7 which are not transformed with cDNA sequences coding for a sucrose transporter from spinach are employed as further control.
The various tested substances, their concentration and the activity of the transporter, shown as percentage activity of the control in which no potential inhibitors were added, are indicated. Substances which specifically show an inhibitory effect on the sucrose transporter S21 (SoSUT1), are tested for their herbicidal and growth-regulating effect on whole plants.

[2] = molecular target: T2, ammonium transporter AMT1 (Arabidopsis thaliana, UniProt P54144); assay: cell-based
T2 construct: expressed in transfected cells; host or cells: Saccharomyces cerevisiae 26972c (mutations in MEP1 and MEP2)
T2 sequence (P54144 1-501): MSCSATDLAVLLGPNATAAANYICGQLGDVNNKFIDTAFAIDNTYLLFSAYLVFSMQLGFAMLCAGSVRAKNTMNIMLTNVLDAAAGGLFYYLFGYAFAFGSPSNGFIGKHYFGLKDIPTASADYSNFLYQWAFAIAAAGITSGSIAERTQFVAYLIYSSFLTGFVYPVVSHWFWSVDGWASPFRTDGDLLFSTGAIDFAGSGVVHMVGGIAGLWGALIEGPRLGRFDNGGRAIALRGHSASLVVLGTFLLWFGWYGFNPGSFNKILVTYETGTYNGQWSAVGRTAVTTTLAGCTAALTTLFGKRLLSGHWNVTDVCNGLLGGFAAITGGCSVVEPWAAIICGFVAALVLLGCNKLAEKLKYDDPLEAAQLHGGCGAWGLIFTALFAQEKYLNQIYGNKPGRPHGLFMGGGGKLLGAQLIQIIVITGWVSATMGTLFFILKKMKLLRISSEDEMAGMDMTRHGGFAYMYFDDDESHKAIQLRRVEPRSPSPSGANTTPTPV

[3] = [14C]-sucrose uptake, pH 3.8, read-out: Activity relative to the control [%]
[4] = [14C]-sucrose uptake, pH 3.8, tested substance 2 mM, read-out: Activity relative to the control [%]
[5] = [14C]-methylamine uptake, tested substance 500 μM
[6] = pH 7, read-out: Activity relative to the control [%]
[7] = pH 7, [14C]-methylamine uptake, tested substance 500 μM, read-out: Activity relative to the control [%]
[8] = pH 3.8, read-out: Activity relative to the control [%]

remaining activity at 1000 µM [1, 3]: 0%
Compound: NC1CC(CO)C(O)C1O (stereo not shown)

remaining activity at 1000 µM [1, 3]: 0%
Compound: Nc1ncnc2c1ncn2C1CC=CC1CO (stereo not shown)

remaining activity at 2000 µM [1, 4]: 99.4%
Compound: OC[C@H]1O[C@@H](O[C@H]2[C@H](O)[C@@H](O)C(O)O[C@@H]2CO)[C@H](O)[C@@H](O)[C@@H]1O (stereo partly shown) [Cellobiose]

Compound: [Cl-].[Cs+] [CsCl]
Activity relative to the control [%] [2, 5]: 98%

Compound: C[C@@H]1C[C@@H]([C@H](O)CC2CC(=O)NC(=O)C2)C(=O)[C@@H](C)C1 [Cycloheximide]
remaining activity at 10 µg/mL [2, 6]: 85%

Compound: C(=NC1CCCCC1)=NC1CCCCC1 [DCCD]
remaining activity at 200 µM ([2]; pH 7, [14C]-methylamine uptake, tested substance 200 μM, read-out: Activity relative to the control [%]): 15%

Compound: CNC [Dimethylamine]
remaining activity at 500 µM [2, 6]: 89%

Compound: CCN [Ethylamine]
remaining activity at 500 µM [2, 7]: 93%

Compound: OC[C@H]1OC(O)[C@H](O)[C@@H](O)[C@H]1O (stereo partly shown) [Galactose]
remaining activity at 2000 µM [1, 8]: 97.7%

Compound: [Cl-].[K+] [KCl]
Activity relative to the control [%] [2, 5]: 98%

Compound: OC[C@H]1OC(O)[C@@H](O)[C@@H](O)[C@@H]1O (stereo partly shown) [Mannose]
remaining activity at 2000 µM [1, 8]: 86.5%

remaining activity at 2000 µM [1, 4]: 92.3%
Compound: OC[C@H]1O[C@H](OC[C@H]2OC(O)[C@H](O)[C@@H](O)[C@@H]2O)[C@H](O)[C@@H](O)[C@H]1O (stereo partly shown) [Melibiose]

remaining activity at 2000 µM [1, 4]: 97.2%
Compound: OC[C@H]1O[C@@](CO)(O[C@H]2O[C@H](CO)[C@@H](O)[C@H](O)[C@H]2O)[C@@H](O[C@H]2O[C@H](CO)[C@@H](O)[C@H](O)[C@H]2O)[C@@H]1O [Melizitose]

Compound: Cl.N [NH4 Cl]
Activity relative to the control [%] [2, 5]: 10%

Compound: [Cl-].[Rb+] [RbCl]
Activity relative to the control [%] [2, 5]: 96%

Compound: CN(C)C [Trimethylamine]
remaining activity at 500 µM [2, 7]: 89%

remaining activity at 2000 µM [1, 4]: 81.8%
Compound: OC[C@H]1O[C@@H](O[C@H]2[C@H](O)[C@@H](O)[C@@H](O)O[C@@H]2CO)[C@H](O)[C@@H](O)[C@H]1O [α-Lactose]

Activity relative to the control [%] ([1]; [14C]-sucrose uptake, pH 3.8, tested substance 2 mM): 80.6%
Compound: Altrose

Compound: Antimycin A
Activity relative to the control [%] ([2]; [14C]-methylamine uptake, tested substance 10 μg/ml): 8%
